Series [1] deals with T1, human ACC1 (acetyl-coenzyme A carboxylase alpha transcript variant 1) (Homo sapiens, UniProt Q13085).
T1 construct: FLAG (C); made in house; host or cells: baculovirus-infected insect cells (Hi5)
Kind of series: Human ACC1 enzyme assay, Assay B1 (ADP-Glo). Type of series: biochemical. In general terms: In ADP-Glo the light output rises with the ADP produced.

The test system of another series is A431. Briefly: Cell proliferation assay (CellTiter-Glo, 96 h), A431. Type of series: cell-based. The conditions noted are these: Homo sapiens, A-431; 96-hour incubation. The method, then:
(§1) In accordance with the invention, the substances were tested in cell-based assays for the ability of the substances of inhibiting tumour cell proliferation after a 96-hour incubation with the substance. Cell viability was tested using the CellTiter-Glo® luminescent cell viability assay (Promega). The cells were sown at a density of 2000-5000 cells/well (depending on the cell line) in 100 μl growth medium on 96-well microtitre plates. For each cell line examined, cells were sown on a separate plate to determine the luminescence at t=0 hours and t=96 hours. After overnight incubation at 37° C., the luminescence values for the t=0 samples were determined. The dose plates for the t=96 hours points in time were treated with substances diluted with growth medium. The cells were then incubated at 37° C. for 96 hours, and the luminescence values for the t=96 hours sample were then determined. For data analysis, the t=0 values were subtracted from the t=96 hour values for treated and untreated samples. The differences in luminescence in percent between substance-treated samples and control values were used to determine the growth inhibition in percent.
(§2) The substances were tested in the following cell lines which represent the stated indications in an exemplary manner: […]

The target of series [2] is human ACC2 (acetyl-coenzyme A carboxylase 2) (Homo sapiens, UniProt O00763). Kind of series: Human ACC2 enzyme assay, Assay B2 (ADP-Glo).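 Also: human ACC2 activity read as ADP product, detected by luciferase glow luminescence after residual ATP removal, enzyme near 2 ng/µl in linear range, detection steps at 22 °C.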
human ACC2 (acetyl-coenzyme A carboxylase 2), sequence (O00763 27-2458 limits assumed): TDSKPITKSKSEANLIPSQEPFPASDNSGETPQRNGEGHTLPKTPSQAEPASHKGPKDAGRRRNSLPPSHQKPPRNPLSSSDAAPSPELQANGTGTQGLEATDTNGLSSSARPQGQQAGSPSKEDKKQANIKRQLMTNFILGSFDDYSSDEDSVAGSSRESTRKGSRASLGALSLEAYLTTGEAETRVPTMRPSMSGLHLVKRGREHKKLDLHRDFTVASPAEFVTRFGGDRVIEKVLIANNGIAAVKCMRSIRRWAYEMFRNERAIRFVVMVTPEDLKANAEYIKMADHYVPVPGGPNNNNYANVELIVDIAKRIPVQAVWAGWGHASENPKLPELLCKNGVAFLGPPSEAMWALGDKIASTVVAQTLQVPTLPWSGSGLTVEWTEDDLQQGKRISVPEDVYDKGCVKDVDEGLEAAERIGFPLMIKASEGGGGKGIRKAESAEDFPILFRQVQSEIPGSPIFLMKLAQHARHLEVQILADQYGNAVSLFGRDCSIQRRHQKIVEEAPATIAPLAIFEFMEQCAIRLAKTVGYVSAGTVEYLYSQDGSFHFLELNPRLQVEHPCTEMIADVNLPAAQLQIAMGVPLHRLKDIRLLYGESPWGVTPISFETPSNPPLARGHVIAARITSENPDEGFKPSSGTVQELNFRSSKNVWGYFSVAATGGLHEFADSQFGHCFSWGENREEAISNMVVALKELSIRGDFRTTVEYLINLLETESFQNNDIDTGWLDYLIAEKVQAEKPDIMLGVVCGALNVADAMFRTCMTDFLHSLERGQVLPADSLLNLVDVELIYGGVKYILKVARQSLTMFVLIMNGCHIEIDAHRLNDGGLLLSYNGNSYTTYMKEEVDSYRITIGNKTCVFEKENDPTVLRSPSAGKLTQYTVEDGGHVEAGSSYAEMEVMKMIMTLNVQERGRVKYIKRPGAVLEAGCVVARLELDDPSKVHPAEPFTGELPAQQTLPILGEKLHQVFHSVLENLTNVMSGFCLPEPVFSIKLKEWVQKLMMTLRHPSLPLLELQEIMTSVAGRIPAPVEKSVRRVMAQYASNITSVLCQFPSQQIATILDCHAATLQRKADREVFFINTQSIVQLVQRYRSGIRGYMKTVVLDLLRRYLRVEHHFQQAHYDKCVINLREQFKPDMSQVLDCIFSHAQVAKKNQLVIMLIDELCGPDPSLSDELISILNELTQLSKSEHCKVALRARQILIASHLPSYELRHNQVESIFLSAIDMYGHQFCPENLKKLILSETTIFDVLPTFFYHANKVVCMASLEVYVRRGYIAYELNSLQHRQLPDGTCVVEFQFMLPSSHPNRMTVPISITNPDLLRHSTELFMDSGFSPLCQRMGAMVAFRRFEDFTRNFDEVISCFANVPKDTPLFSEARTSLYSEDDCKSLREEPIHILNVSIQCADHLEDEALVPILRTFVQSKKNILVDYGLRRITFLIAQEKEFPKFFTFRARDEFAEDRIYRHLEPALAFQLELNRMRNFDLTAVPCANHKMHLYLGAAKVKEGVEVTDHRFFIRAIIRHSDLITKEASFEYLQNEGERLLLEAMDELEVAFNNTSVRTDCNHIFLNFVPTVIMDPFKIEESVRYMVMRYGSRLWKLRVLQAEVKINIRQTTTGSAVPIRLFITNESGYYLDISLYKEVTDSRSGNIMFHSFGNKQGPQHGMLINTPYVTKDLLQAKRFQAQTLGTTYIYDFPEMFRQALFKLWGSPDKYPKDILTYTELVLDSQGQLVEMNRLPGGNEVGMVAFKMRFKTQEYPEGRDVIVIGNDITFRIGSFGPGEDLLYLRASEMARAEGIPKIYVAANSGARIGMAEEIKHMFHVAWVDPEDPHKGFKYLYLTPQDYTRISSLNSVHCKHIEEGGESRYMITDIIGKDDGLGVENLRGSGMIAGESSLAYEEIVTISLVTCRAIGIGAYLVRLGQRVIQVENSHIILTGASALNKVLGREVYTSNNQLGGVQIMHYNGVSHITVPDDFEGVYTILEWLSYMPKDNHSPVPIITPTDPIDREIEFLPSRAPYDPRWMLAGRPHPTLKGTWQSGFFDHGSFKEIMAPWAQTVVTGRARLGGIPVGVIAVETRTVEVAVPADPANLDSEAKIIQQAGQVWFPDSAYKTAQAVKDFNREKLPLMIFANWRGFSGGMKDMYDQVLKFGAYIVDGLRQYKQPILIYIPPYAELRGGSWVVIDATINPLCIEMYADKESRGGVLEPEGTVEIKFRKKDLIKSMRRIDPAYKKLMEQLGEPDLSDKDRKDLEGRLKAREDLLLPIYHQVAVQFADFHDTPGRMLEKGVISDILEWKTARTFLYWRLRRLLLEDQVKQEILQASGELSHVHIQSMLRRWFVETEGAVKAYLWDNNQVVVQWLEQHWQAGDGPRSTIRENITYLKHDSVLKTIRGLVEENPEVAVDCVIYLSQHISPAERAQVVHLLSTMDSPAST
The subject of a further series is Miapaca. Briefly: Cell proliferation assay (CellTiter-Glo, 96 h), Miapaca. Format: cell-based. To be noted: Homo sapiens, MIA PaCa-2; 96-hour incubation. The method, then: as §1, §2
(In general: In ATP-based viability assays light output follows the ATP content of the culture.)

The next series has as its system HCC-1937. Briefly: Cell proliferation assay (CellTiter-Glo, 96 h), HCC-1937. Type of series: cell-based. To be noted: Homo sapiens, HCC1937; 96-hour incubation. How it is done: as §1, §2
The test system of a further series is MCF7. Briefly: Cell proliferation assay (CellTiter-Glo, 96 h), MCF7. To be noted: Homo sapiens, MCF7; Table 7; 96-hour incubation. Format: cell-based. Put shortly:
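Growth inhibition in percent was based on luminescence differences between treated and control samples after subtracting baseline readings taken at t=0. Cells had been incubated with compound for 96 hours at 37° C. following overnight plating.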

The next series relates to MDA-MB-468. Briefly: Cell proliferation assay (CellTiter-Glo, 96 h), MDA-MB-468. Format: cell-based. To be noted: Homo sapiens, MDA-MB-468; 96-hour incubation. How it is done: as §1, §2
Series [3] has as its system malonyl-CoA in a tumour (human MCF-7 breast cancer cells). Briefly: Mode-of-action experiment: intratumour malonyl-CoA in MCF-7 tumours after oral administration. Format: in vivo, female nude mice (NMRI-nude (nu/nu)). The conditions noted are these: Mus musculus, MCF7, po; after 7 h, 10 mg/kg, vs Vehicle. The method, then:
Mode-of-Action Experiment
Prior to the determination of the activity in the MCF-7 model, some of the test substances were examined in a “mode of action” experiment. The principle of this experiment is that short-term application of a test substance capable of inhibiting ACC1 and/or ACC2 in a living organism after oral administration reduces malonyl-CoA in a tumour. To this end, in the experiment 2 million human MCF-7 breast cancer cells were injected subcutaneously into female nude mice (NMRI-nude (nu/nu) mice, Taconic M&B A/S, 1 day beforehand administration of a pellet for the release of oestrogen over a period of at least 60 days). Once the tumour extended to an area of about 60-70 mm^2, the test substance was administered orally over a period of 1-3 days, and at defined points in time the intratumour content of malonyl-CoA was then determined and compared to the vehicle control. The method is described in Anal Chem 2008 Aug. 1; 80(15):5736-42. Epub 2008 Jul. 9.).

The test system of another series is MDA-MB-436. Briefly: Cell proliferation assay (CellTiter-Glo, 96 h), MDA-MB-436. Format: cell-based. The conditions noted are these: Homo sapiens, MDA-MB-436; 96-hour incubation. The method, then: as §1, §2
The next series has as its system MDA-MB-435. Briefly: Cell proliferation assay (CellTiter-Glo, 96 h), MDA-MB-435. Type of series: cell-based. To be noted: Homo sapiens, 96-hour incubation. How it is done:
as §1, §2

The next series concerns PLC/PRF5. Briefly: Cell proliferation assay (CellTiter-Glo, 96 h), PLC/PRF5. To be noted: Homo sapiens, PLC-PRF-5; 96-hour incubation. Format: cell-based. How it is done:
as §1, §2

Another series relates to PC3. Kind of series: Cell proliferation assay (CellTiter-Glo, 96 h), PC3. Type of series: cell-based. To be noted: Homo sapiens, PC-3; 96-hour incubation. The method, then: as §1, §2
The next series has as its system KM12. Briefly: Cell proliferation assay (CellTiter-Glo, 96 h), KM12. Format: cell-based. The conditions noted are these: Homo sapiens, 96-hour incubation. The method, then: as §1, §2
A further series relates to DLD1. Briefly: Cell proliferation assay (CellTiter-Glo, 96 h), DLD1. The conditions noted are these: Homo sapiens, DLD-1; 96-hour incubation. Format: cell-based. The method, then: as §1, §2
The next series deals with NCI-H2135. Briefly: Cell proliferation assay (CellTiter-Glo, 96 h), NCI-H2135. Format: cell-based. The conditions noted are these: 96-hour incubation; read-out: NCLH 2135 IC50. The method, then: as §1, §2
In another series the test system is ECC1. Briefly: Cell proliferation assay (CellTiter-Glo, 96 h), ECC1. Type of series: cell-based. The conditions noted are these: Homo sapiens, ECC-1; 96-hour incubation. How it is done: as §1, §2
The subject of a further series is Du145. Kind of series: Cell proliferation assay (CellTiter-Glo, 96 h), Du145. Type of series: cell-based. To be noted: Homo sapiens, DU-145; 96-hour incubation. How it is done:
as §1, §2

The test system of another series is 786 O. Briefly: Cell proliferation assay (CellTiter-Glo, 96 h), 786 O. Format: cell-based. The conditions noted are these: Homo sapiens, 786-0; 96-hour incubation. The method, then:
as §1, §2

Another series deals with HEC1A. Briefly: Cell proliferation assay (CellTiter-Glo, 96 h), HEC1A. Format: cell-based. To be noted: Homo sapiens, HEC-1-A; 96-hour incubation. The method, then: as §1, §2
The target of series [4] is acetyl-CoA carboxylase 2 (ACC2) (Homo sapiens, UniProt O00763). Kind of series: Human ACC2 enzyme assay, Assay A2 (HTRF ADP immunoassay).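 Also: ADP generated by ACC2 quantified via competitive time-resolved FRET between europium cryptate anti-ADP antibody and d2-tagged ADP, enzyme kept in linear range near 0.6 ng/µl.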 In general terms: Time-resolved FRET reads energy transfer from a long-lived donor to a nearby acceptor.
acetyl-CoA carboxylase 2 (ACC2), sequence (O00763 39-2458 limits assumed): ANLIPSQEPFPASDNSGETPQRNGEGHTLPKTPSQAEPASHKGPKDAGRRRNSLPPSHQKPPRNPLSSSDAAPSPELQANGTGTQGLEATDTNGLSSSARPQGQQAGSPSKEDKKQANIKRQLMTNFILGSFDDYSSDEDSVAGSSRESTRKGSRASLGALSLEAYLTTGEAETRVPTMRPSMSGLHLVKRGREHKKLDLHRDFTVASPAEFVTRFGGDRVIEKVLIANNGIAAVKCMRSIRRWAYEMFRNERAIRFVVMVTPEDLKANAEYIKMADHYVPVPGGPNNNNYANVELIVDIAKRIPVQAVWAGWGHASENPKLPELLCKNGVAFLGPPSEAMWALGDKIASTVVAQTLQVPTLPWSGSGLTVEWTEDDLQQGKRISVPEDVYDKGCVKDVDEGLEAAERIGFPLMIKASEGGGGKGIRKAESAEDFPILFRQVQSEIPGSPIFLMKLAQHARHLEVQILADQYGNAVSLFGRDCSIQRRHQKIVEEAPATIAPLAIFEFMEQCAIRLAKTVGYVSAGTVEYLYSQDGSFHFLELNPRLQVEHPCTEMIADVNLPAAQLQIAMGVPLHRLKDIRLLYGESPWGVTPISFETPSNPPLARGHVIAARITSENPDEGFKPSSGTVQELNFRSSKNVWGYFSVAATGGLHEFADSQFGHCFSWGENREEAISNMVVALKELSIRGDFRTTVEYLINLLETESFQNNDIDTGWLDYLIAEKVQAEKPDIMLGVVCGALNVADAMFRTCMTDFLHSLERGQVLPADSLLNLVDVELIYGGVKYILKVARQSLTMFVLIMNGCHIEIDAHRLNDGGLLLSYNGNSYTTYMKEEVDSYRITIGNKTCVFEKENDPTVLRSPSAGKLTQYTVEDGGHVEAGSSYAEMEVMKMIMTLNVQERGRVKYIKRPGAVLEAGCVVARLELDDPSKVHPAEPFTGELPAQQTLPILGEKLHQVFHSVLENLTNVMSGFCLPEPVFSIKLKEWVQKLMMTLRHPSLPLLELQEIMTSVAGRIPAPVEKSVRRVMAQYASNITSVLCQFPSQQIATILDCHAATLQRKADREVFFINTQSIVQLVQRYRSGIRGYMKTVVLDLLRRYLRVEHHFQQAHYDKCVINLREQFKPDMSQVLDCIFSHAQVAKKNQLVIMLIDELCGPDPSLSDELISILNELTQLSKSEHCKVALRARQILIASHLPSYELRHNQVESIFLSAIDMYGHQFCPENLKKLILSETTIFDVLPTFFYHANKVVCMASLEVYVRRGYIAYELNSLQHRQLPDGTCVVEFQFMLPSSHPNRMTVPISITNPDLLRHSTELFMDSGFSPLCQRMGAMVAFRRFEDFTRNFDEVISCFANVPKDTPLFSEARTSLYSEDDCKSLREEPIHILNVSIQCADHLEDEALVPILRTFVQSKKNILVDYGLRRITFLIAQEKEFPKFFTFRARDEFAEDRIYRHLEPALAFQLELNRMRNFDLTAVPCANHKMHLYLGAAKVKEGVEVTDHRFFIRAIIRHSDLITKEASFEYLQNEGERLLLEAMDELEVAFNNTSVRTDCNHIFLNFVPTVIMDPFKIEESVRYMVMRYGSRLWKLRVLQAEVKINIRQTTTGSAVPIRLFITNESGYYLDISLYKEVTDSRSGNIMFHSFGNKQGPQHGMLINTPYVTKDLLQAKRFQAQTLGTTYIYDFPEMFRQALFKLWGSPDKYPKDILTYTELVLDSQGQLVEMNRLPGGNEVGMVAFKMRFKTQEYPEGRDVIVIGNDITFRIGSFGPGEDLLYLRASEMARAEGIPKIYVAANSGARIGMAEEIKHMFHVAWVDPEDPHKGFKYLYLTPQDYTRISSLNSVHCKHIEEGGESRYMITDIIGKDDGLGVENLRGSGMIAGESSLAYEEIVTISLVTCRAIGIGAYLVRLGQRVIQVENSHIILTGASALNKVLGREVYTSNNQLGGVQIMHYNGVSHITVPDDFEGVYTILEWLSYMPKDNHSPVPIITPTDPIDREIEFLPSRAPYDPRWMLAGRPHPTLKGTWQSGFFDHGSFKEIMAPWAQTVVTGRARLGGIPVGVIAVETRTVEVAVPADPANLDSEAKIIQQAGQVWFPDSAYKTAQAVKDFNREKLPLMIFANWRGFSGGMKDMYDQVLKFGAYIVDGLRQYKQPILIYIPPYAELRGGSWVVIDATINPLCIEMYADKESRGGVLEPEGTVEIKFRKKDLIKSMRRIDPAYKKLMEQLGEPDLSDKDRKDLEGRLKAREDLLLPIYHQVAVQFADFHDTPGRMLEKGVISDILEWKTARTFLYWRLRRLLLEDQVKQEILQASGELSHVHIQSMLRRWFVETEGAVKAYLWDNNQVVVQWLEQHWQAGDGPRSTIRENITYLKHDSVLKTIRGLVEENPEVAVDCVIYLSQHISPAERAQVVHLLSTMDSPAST
The next series addresses recombinant human ACC1 (Homo sapiens, UniProt Q13085). Kind of series: Human ACC1 enzyme assay, Assay A1 (HTRF ADP immunoassay).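 Also: ADP generated by the enzyme quantified via competitive time-resolved FRET, read as europium cryptate to d2 energy transfer after 1 h at 22 °C with labelled ADP tracer and anti-ADP antibody.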
Series [5] in a line: In-vitro dissolution of the pharmaceutical formulation (USP apparatus 2, paddle method). To be noted: pH 1 and pH 6.8 (reason for adding SDS). Format: physicochemical. The method, then: c) In-Vitro Dissolution of the Pharmaceutical Formulation […] The release test was in each case carried out in 900 ml of various media at 37° C. and with a stirrer speed of 75 rotations per minute (FIG. 2). Each determination was carried out in three replications. The content was determined by HPLC.

Setting [6] is: Assay B1, read-out: ACC 1 (=B1) IC50.

Like-named read-outs stand apart in the source and are kept apart here.

In general, IC50 refers to the concentration that inhibits the measured activity by half. The inhibition in vivo is the drop in the measured response relative to a control, in per cent. For the compound `COCC1CCC2(CC1)NC(=O)C(c1cc(-c3ccc(Cl)cc3)ccc1C)=C2O` (centres unmarked) [1-56, 3-(4′-chloro-4-methylbiphenyl-3-yl)-4-hydroxy-8-(methoxymethyl)-1-azaspiro[4.5]dec-3-en-2-one], the 50% inhibitory concentration (IC50) was 202 nM in [1] (setting [6]); 214 nM in the series with A431; 672 nM in [2]; 316 nM with Miapaca; 171 nM in the series with HCC-1937; 30 nM in the series on MCF7. For the same compound, the 50% inhibitory concentration (IC50) with MDA-MB-468 came out at 138 nM; with MDA-MB-436 it was 84 nM. In addition, at 10 mg/kg the inhibition in vivo in series [3] was 84%.

Take `Cc1ccc(-c2ccc(Cl)cc2)cc1C1=C(O)C2(CCCCC2)NC1=O` [1-77, 3-(4′-chloro-4-methylbiphenyl-3-yl)-4-hydroxy-1-azaspiro[4.5]dec-3-en-2-one]: the IC50 in series [1] was found to be 278 nM; in the series with MDA-MB-435, 140 nM; with PLC/PRF5 it was 3890 nM; in series [2], 2590 nM; in the series on PC3 it was 31 nM; in the series on KM12, 80 nM. Also, the half-inhibitory concentration (IC50) in the series with DLD1 turned out to be 875 nM; in the series on NCI-H2135, 33 nM; in the series with ECC1, 257 nM; in the series on Du145 it was 51 nM; with 786 O it was 404 nM. In series [3], this compound registered an inhibition in vivo at 10 mg/kg of 96%.

Consider `CO[C@H]1CC[C@]2(CC1)NC(=O)C(c1cc(-c3ccc(Cl)c(F)c3)ccc1C)=C2O` [1-118, (5s,8s)-3-(4′-Chloro-3′-fluoro-4-methylbiphenyl-3-yl)-4-hydroxy-8-methoxy-1-azaspiro[4.5]dec-3-en-2-one], for which the IC50 in [1] (setting [6]) came to 102 nM; in series [2], 1380 nM; with PC3, 25 nM; in the series on KM12 it was 275 nM; in the series on HEC1A, 1760 nM; in series [4], 690 nM. Further, the IC50 stood at 37 nM in the series with MCF7, 129 nM on recombinant human ACC1, 221 nM with ECC1 and 39 nM in the series with Du145. Besides, the “solubility in dissolution media” value in [5] is “insufficient solubility”.

The record behind these values is patent US20130040935A1, “CYCLIC KETO-ENOLS FOR THERAPY” (BAYER INTELLECTUAL PROPERTY GMBH, priority 2010, published 2013).
